From patent US12077503B2, “Substituted cyclic amides and their use as herbicides” (FMC CORPORATION, priority 2015, dated 2024)

Key:
Type in all cases: in vivo
[1] = tested on: Kochia (Kochia scoparia); test: Test A preemergence; settings: Bassia scoparia, pre-emergence, 240 h, 0 to 100 scale where 0 is no effect and 100 is complete control, read-out: Kochia plant response rating; for pest or weed control at 31 g/ha: 31 g ai/ha, Preemergence; for pest or weed control at 125 g/ha: 125 g ai/ha, preemergence, visual injury rating, approximately 10 d
Method in brief: (§1)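 Visual injury, scored on a 0–100 scale relative to untreated controls, was recorded about 10 d after application. Treatments were a preemergence soil spray over planted seeds or a postemergence spray on plants at the one- to two-leaf stage, 2 to 10 cm tall, all in loam soil–sand blend in the greenhouse.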

[2] = tested on: barnyardgrass (Echinochloa crus-galli); test: Test A preemergence; settings: Echinochloa crus-galli, pre-emergence, 240 h, 0 to 100 scale where 0 is no effect and 100 is complete control, read-out: Barnyardgrass plant response rating; for pest or weed control at 31 g/ha: 31 g ai/ha, Preemergence; for pest or weed control at 125 g/ha: 125 g ai/ha, preemergence, visual injury rating, approximately 10 d
Method in brief: as §1

[3] = tested on: giant foxtail (Setaria faberii); test: Test A preemergence; settings: Setaria faberi, pre-emergence, 240 h, 0 to 100 scale where 0 is no effect and 100 is complete control, read-out: Foxtail, Giant plant response rating; for pest or weed control at 31 g/ha: 31 g ai/ha, Preemergence; for pest or weed control at 125 g/ha: 125 g ai/ha, preemergence, visual injury rating, approximately 10 d
Method in brief: as §1

[4] = tested on: pigweed (Amaranthus retroflexus); test: Test A preemergence; settings: Amaranthus retroflexus, pre-emergence, 240 h, 0 to 100 scale where 0 is no effect and 100 is complete control, read-out: Pigweed plant response rating; for pest or weed control at 31 g/ha: 31 g ai/ha, Preemergence; for pest or weed control at 125 g/ha: 125 g ai/ha, preemergence, visual injury rating, approximately 10 d
[5] = tested on: ragweed (common ragweed, Ambrosia elatior); test: Test A preemergence; settings: Ambrosia artemisiifolia, pre-emergence, 240 h, 0 to 100 scale where 0 is no effect and 100 is complete control, read-out: Ragweed plant response rating; for pest or weed control at 31 g/ha: 31 g ai/ha, Preemergence; for pest or weed control at 125 g/ha: 125 g ai/ha, preemergence, visual injury rating, approximately 10 d
Method in brief: as §1

[6] = tested on: ryegrass, Italian (Italian ryegrass, Lolium multiflorum); test: Test A preemergence; settings: Lolium multiflorum, pre-emergence, 240 h, 0 to 100 scale where 0 is no effect and 100 is complete control, read-out: Ryegrass, Italian plant response rating; for pest or weed control at 31 g/ha: 31 g ai/ha, Preemergence; for pest or weed control at 125 g/ha: 125 g ai/ha, preemergence, visual injury rating, approximately 10 d
Method in brief: as §1

[7] = tested on: Galium (catchweed bedstraw, Galium aparine); test: Test A postemergence; settings: Galium, post-emergence, 240 h, Postemergence, read-out: Galium plant response rating (0 to 100 scale); for pest or weed control at 125 g/ha: 125 g ai/ha, visual rating about 10 d after treatment; for pest or weed control at 31 g/ha: 31 g ai/ha, 0 is no effect, 100 is complete control
Method in brief: as §1

[8] = tested on: Kochia (Kochia scoparia); test: Test A postemergence; settings: Bassia scoparia, post-emergence, 240 h, Postemergence, read-out: Kochia plant response rating (0 to 100 scale); for pest or weed control at 125 g/ha: 125 g ai/ha, visual rating about 10 d after treatment; for pest or weed control at 31 g/ha: 31 g ai/ha, 0 is no effect, 100 is complete control
Method in brief: as §1

[9] = tested on: barnyardgrass (Echinochloa crus-galli); test: Test A postemergence; settings: Echinochloa crus-galli, post-emergence, 240 h, Postemergence; for pest or weed control at 125 g/ha: 125 g ai/ha, visual rating about 10 d after treatment, read-out: Barnyardgrass plant response rating (0 to 100 scale, 0 no effect, 100 complete control); for pest or weed control at 31 g/ha: 31 g ai/ha, 0 is no effect, 100 is complete control, read-out: Barnyardgrass plant response rating (0 to 100 scale)
Method in brief: as §1

[10] = tested on: blackgrass (Alopecurus myosuroides); test: Test A postemergence; settings: Alopecurus myosuroides, post-emergence, 240 h, Postemergence, read-out: Blackgrass plant response rating (0 to 100 scale); for pest or weed control at 125 g/ha: 125 g ai/ha, visual rating about 10 d after treatment; for pest or weed control at 31 g/ha: 31 g ai/ha, 0 is no effect, 100 is complete control
Method in brief: as §1

[11] = tested on: corn (Zea mays); test: Test A postemergence; settings: Zea mays, post-emergence, 240 h, Postemergence, read-out: Corn plant response rating (0 to 100 scale); for plant injury at 125 g/ha: 125 g ai/ha, visual rating about 10 d after treatment; for plant injury at 31 g/ha: 31 g ai/ha, 0 is no effect, 100 is complete control
Method in brief: as §1

[12] = tested on: giant foxtail (Setaria faberii); test: Test A postemergence; settings: Setaria faberi, post-emergence, 240 h, Postemergence, read-out: Foxtail, Giant plant response rating (0 to 100 scale); for pest or weed control at 125 g/ha: 125 g ai/ha, visual rating about 10 d after treatment; for pest or weed control at 31 g/ha: 31 g ai/ha, 0 is no effect, 100 is complete control
Method in brief: as §1

[13] = tested on: pigweed (Amaranthus retroflexus); test: Test A postemergence; settings: Amaranthus retroflexus, post-emergence, 240 h, Postemergence, read-out: Pigweed plant response rating (0 to 100 scale); for pest or weed control at 125 g/ha: 125 g ai/ha, visual rating about 10 d after treatment; for pest or weed control at 31 g/ha: 31 g ai/ha, 0 is no effect, 100 is complete control
Method in brief: as §1

[14] = tested on: ragweed (common ragweed, Ambrosia elatior); test: Test A postemergence; settings: Ambrosia artemisiifolia, post-emergence, 240 h, Postemergence, read-out: Ragweed plant response rating (0 to 100 scale); for pest or weed control at 125 g/ha: 125 g ai/ha, visual rating about 10 d after treatment; for pest or weed control at 31 g/ha: 31 g ai/ha, 0 is no effect, 100 is complete control
Method in brief: as §1

[15] = tested on: ryegrass, Italian (Italian ryegrass, Lolium multiflorum); test: Test A postemergence; settings: Lolium multiflorum, post-emergence, 240 h, Postemergence, read-out: Ryegrass, Italian plant response rating (0 to 100 scale); for pest or weed control at 125 g/ha: 125 g ai/ha, visual rating about 10 d after treatment; for pest or weed control at 31 g/ha: 31 g ai/ha, 0 is no effect, 100 is complete control
Method in brief: as §1

[16] = tested on: wheat (Triticum aestivum); test: Test A postemergence; settings: Triticum aestivum, post-emergence, 240 h, Postemergence, read-out: Wheat plant response rating (0 to 100 scale); for plant injury at 125 g/ha: 125 g ai/ha, visual rating about 10 d after treatment; for plant injury at 31 g/ha: 31 g ai/ha, 0 is no effect, 100 is complete control
Method in brief: as §1

[17] = tested on: barnyardgrass (Echinochloa crus-galli); test: Test B flooded paddy test; settings: Echinochloa crus-galli, 250 g ai/ha, Flood; 0 to 100 scale where 0 is no effect and 100 is complete control; read-out: Barnyardgrass plant response rating
Method in brief: (§2)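 Percent control, visually estimated after 13–15 d in the greenhouse on a 0–100 basis, compares treated pots with untreated ones; compound was put into paddy water 3 cm above the soil when plants had two leaves.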

[18] = tested on: ducksalad (Heteranthera limosa); test: Test B flooded paddy test; settings: Heteranthera limosa, 250 g ai/ha, Flood; 0 to 100 scale where 0 is no effect and 100 is complete control; read-out: Ducksalad plant response rating
Method in brief: as §2

[19] = tested on: rice (Oryra sativa); test: Test B flooded paddy test; settings: Oryza sativa, 250 g ai/ha, Flood; 0 to 100 scale where 0 is no effect and 100 is complete control; read-out: Rice plant response rating
Method in brief: as §2

[20] = tested on: sedge, umbrella (small-flower umbrella sedge, Cyperus difformis); test: Test B flooded paddy test; settings: Cyperus difformis, 250 g ai/ha, Flood; 0 to 100 scale where 0 is no effect and 100 is complete control; read-out: Sedge, Umbrella plant response rating
Method in brief: as §2

| SMILES | pest or weed control at 31 g/ha [1] | pest or weed control at 125 g/ha [1] | pest or weed control at 31 g/ha [2] | pest or weed control at 125 g/ha [2] | pest or weed control at 31 g/ha [3] | pest or weed control at 125 g/ha [3] | pest or weed control at 31 g/ha [4] | pest or weed control at 125 g/ha [4] | pest or weed control at 31 g/ha [5] | pest or weed control at 125 g/ha [5] | pest or weed control at 31 g/ha [6] | pest or weed control at 125 g/ha [6] | pest or weed control at 125 g/ha [7] | pest or weed control at 31 g/ha [7] | pest or weed control at 125 g/ha [8] | pest or weed control at 31 g/ha [8] | pest or weed control at 125 g/ha [9] | pest or weed control at 31 g/ha [9] | pest or weed control at 125 g/ha [10] | pest or weed control at 31 g/ha [10] | also measured |
| --- | --- | --- | --- | --- | --- | --- | --- | --- | --- | --- | --- | --- | --- | --- | --- | --- | --- | --- | --- | --- | --- |
| CN1C[C@H](c2cc(Cl)cc(Cl)c2)[C@@H](C(=O)Nc2ccccc2F)C1=O [Compound 1269] | 0% | 50% | 70% | 90% | 90% | 90% | 0% | 0% | 0% | 0% | 0% | 30% | 60% | 0% | 40% | 0% | 90% | 90% | 40% | 0% | plant injury at 125 g/ha [11]: 80%; plant injury at 31 g/ha [11]: 0%; pest or weed control at 125 g/ha [12]: 80%; pest or weed control at 31 g/ha [12]: 60%; pest or weed control at 125 g/ha [13]: 30%; pest or weed control at 31 g/ha [13]: 0%; pest or weed control at 125 g/ha [14]: 0%; pest or weed control at 31 g/ha [14]: 0%; pest or weed control at 125 g/ha [15]: 30%; pest or weed control at 31 g/ha [15]: 0%; plant injury at 125 g/ha [16]: 60%; plant injury at 31 g/ha [16]: 0%; pest or weed control at 250 g/ha [17]: 60%; pest or weed control at 250 g/ha [18]: 90%; pest or weed control at 250 g/ha [19]: 0%; pest or weed control at 250 g/ha [20]: 0% |
| O=C(Nc1cccc(F)c1F)C1C(=O)N(CC(F)F)CC1c1cccc(C(F)(F)F)c1 (stereo not drawn) [Compound 1294] | 0% | 0% | 0% | 50% | 0% | 30% | 0% | 0% | 0% | 0% | 0% | 0% | 0% | 0% | 0% | 0% | 20% | 0% | 0% | 0% | plant injury at 125 g/ha [11]: 0%; plant injury at 31 g/ha [11]: 0%; pest or weed control at 125 g/ha [12]: 20%; pest or weed control at 31 g/ha [12]: 0%; pest or weed control at 125 g/ha [13]: 0%; pest or weed control at 31 g/ha [13]: 0%; pest or weed control at 125 g/ha [14]: 0%; pest or weed control at 31 g/ha [14]: 0%; pest or weed control at 125 g/ha [15]: 0%; pest or weed control at 31 g/ha [15]: 0%; plant injury at 125 g/ha [16]: 0%; plant injury at 31 g/ha [16]: 0%; pest or weed control at 250 g/ha [17]: 0%; pest or weed control at 250 g/ha [18]: 0%; pest or weed control at 250 g/ha [19]: 0%; pest or weed control at 250 g/ha [20]: 0% |
